What is called EC50 is the midpoint of the concentration-response curve.

One assay concerns mice. Briefly: Sponge angiogenesis model (haemoglobin content of implanted cellulose sponge). Type of assay: in vivo. The note with it: at a concentration of 300 μM. The source says:
Sponge Angiogenesis Model
The sponge angiogenesis model is an adaptation of the technique of Andrade et al. [Andrade S P, Machado R., Teixeiras, Belo A V, Tarso A M, Beraldo W T—Sponge-induced angiogenesis in mice and the pharmacological reactivity of the neovasculature quantitated by fluorimetric method, Microvascular Research, 1997, 54: 253-61.]
The mice used are BalbC females from Charles River Laboratory, 7 to 10 weeks old. The animals are anaesthetized by intraperitoneal injection of a xylazine/ketamine mixture (1 mg/kg each in 0.9% NaCl). The animal's back is shaved and disinfected with hexomedine. A subcutaneous 5 ml pocket of air is made on the animal's back with sterile air. An incision is then made (approximately 1 cm) on the top of the animal's back in order to implant the sponge in the pocket. The biocompatible cellulose sponge (Cellspon, Interchim, 10 mm in diameter) was sterilized beforehand (autoclave 20 min at 120° C.) and is impregnated with 50 μl of sterile solution containing the test product. Suturing is performed by inserting two 9-mm stainless steel autoclip staples (Subra). The wound is again disinfected with hexomedine. […]
To assay the haemoglobin, 50 μl of each sample are deposited in a 96-well plate, in duplicate. […] The OD values are read on a spectrophotometer at 405 nm, using the Biolise software (Tecan, France). […]

The test system of assay [1] is human venous endothelial cells (HUVECs). Briefly: In vitro angiogenesis model (pseudotubule length of HUVECs on matrigel/collagen). The note with it: for EC50 / % activation with respect to FGF2 (in vitro): in vitro; for % activation with respect to FGF2 (in vitro): relative to FGF2. Details: % activation with respect to FGF2 (in vitro): concentration or dose not given beside the values. Type of assay: cell-based. Here is the method: In Vitro Angiogenesis Model
The products are tested for their ability to cause rearrangement of human venous endothelial cells (HUVECs) on matrigel (Becton dickinson 356230) diluted in collagen (rat tail collagen, type I: Becton dickinson 354236). After 24 hours, the cells are observed under a microscope with a ×4 objective and the length of the pseudotubules is measured by means of an image analyser (BIOCOM-logiciel Visiolab 2000).

Some results are limits rather than exact numbers.

As for `Cc1c(-c2ccc(OCC(=O)NCCCCCCNC(=O)COc3ccc(-c4c(C)c(C(=O)c5ccc6[nH]c(=O)n(CC(=O)O)c(=O)c6c5)n5ccccc45)cc3)cc2)c2ccccn2c1C(=O)c1ccc2[nH]c(=O)n(CC(=O)O)c(=O)c2c1` [Compound 4], the “active on the in vitro angiogenesis model (sentence stands under the sponge angiogenesis model)” value in the assay with mice is “active”. Further, in assay [1], the EC50 is less than 1 nM and the “% activation with respect to FGF2 (in vitro)” value (“% activation” below) was determined as 57%.
As for `Cc1c(-c2ccc(C(=O)NCCOP(=O)(O)OCCNC(=O)c3ccc(-c4c(C)c(C(=O)c5ccc6c(=O)n(CC(=O)O)c(=O)[nH]c6c5)n5ccccc45)cc3)cc2)c2ccccn2c1C(=O)c1ccc2c(=O)n(CC(=O)O)c(=O)[nH]c2c1` [Compound 16, [7-({1-[4-({9-[4-(3-{[3-(carboxymethyl)-2,4-dioxo-1,4-dihydroquinazolin-7(2H)-yl]carbonyl}-2-methylindolizin-1-yl)phenyl]-4-hydroxy-4-oxido-9-oxo-3,5-dioxa-8-aza-4λ^5-phosphanon-1-yl}carbamoyl)phenyl]-2-methylindolizin-3-yl}carbonyl)-2,4-dioxo-1,4-dihydroquinazolin-3(2H)-yl]acetic acid], the EC50 in assay [1] (Homo sapiens, HUVEC) is less than 1 nM. Further, the “active on the in vitro angiogenesis model” value in assay [1] (at a concentration of 10 nM) is recorded as “active”. Besides, the “% activation” value in assay [1] came out at 82%.
Take `Cc1c(-c2ccc(C(=O)NCCOCCOCCNC(=O)c3ccc(-c4c(C)c(C(=O)c5ccc6c(=O)n(CC(=O)O)c(=O)[nH]c6c5)n5ccccc45)cc3)cc2)c2ccccn2c1C(=O)c1ccc2c(=O)n(CC(=O)O)c(=O)[nH]c2c1` [Compound 17, 2,2′-{ethane-1,2-diylbis[oxyethane-2,1-diylcarbamoylbenzene-4,1-diyl(2-methylindolizine-1,3-diyl)carbonyl(2,4-dioxo-1,4-dihydroquinazoline-7,3(2H)-diyl)]}diacetic acid]: in assay [1], the EC50 came out at 10 nM and the “% activation” value was determined as 44%.
As for `Cc1c(-c2cccc(C(=O)NCCOCCOCCNC(=O)c3cccc(-c4c(C)c(C(=O)c5ccc6c(=O)n(CC(=O)O)c(=O)[nH]c6c5)n5ccccc45)c3)c2)c2ccccn2c1C(=O)c1ccc2c(=O)n(CC(=O)O)c(=O)[nH]c2c1` [Compound 18, 2,2′-{ethane-1,2-diylbis[oxyethane-2,1-diylcarbamoylbenzene-3,1-diyl(2-methylindolizine-1,3-diyl)carbonyl(2,4-dioxo-1,4-dihydroquinazoline-7,3(2H)-diyl)]}diacetic acid], in assay [1], the EC50 was less than 1 nM and the “% activation” value was determined as 85%.
With `Cc1c(-c2cccc(C(=O)NCCOP(=O)(O)OCCNC(=O)c3cccc(-c4c(C)c(C(=O)c5ccc6c(=O)n(CC(=O)O)c(=O)[nH]c6c5)n5ccccc45)c3)c2)c2ccccn2c1C(=O)c1ccc2c(=O)n(CC(=O)O)c(=O)[nH]c2c1` [Compound 19, [7-({1-[3-({9-[3-(3-{[3-(carboxymethyl)-2,4-dioxo-1,4-dihydroquinazolin-7(2H)-yl]carbonyl}-2-methylindolizin-1-yl)phenyl]-4-hydroxy-4-oxido-9-oxo-3,5-dioxa-8-aza-4λ^5-phosphanon-1-yl}carbamoyl)phenyl]-2-methylindolizin-3-yl}carbonyl)-2,4-dioxo-1,4-dihydroquinazolin-3(2H)-yl]acetic acid], the 50% effective concentration (EC50) in assay [1] (Homo sapiens, HUVEC) was 3 nM. The “% activation” value in assay [1] was determined as 35%.
For `Cc1c(NC(=O)c2cccc(OCC(=O)NCCNC(=O)COc3cccc(C(=O)Nc4c(C)c(C(=O)c5ccc6c(=O)n(CC(=O)O)c(=O)[nH]c6c5)n5ccccc45)c3)c2)c2ccccn2c1C(=O)c1ccc2c(=O)n(CC(=O)O)c(=O)[nH]c2c1` [Compound 20], in assay [1], the EC50 was less than 3 nM and the “% activation” value turned out to be 61%.
